Experimental data from PubChem BioAssay (NCI).
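Compound exposure: 48 hours, 5 concentrations, 96-well plates. GI50 is the concentration that inhibits growth by half. TGI: total growth inhibition.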

Experiments:
Test in all cases: NCI anticancer screen, dose series, 48 h
HCT-15 colon = system: HCT-15 colon
SF-539 CNS = system: SF-539 CNS
COLO 205 colon = system: COLO 205 colon
SK-MEL-28 melanoma = system: SK-MEL-28 melanoma
CCRF-CEM leukemia = system: CCRF-CEM leukemia
HOP-92 NSCLC = system: HOP-92 NSCLC
SNB-19 CNS = system: SNB-19 CNS
A498 renal = system: A498 renal
ACHN renal = system: ACHN renal
HT29 colon = system: HT29 colon
NCI-H460 lung = system: NCI-H460 lung
CAKI-1 renal = system: CAKI-1 renal
OVCAR-3 ovarian = system: OVCAR-3 ovarian
A549 NSCLC = system: A549 NSCLC
SW-620 colon = system: SW-620 colon
SK-OV-3 ovarian = system: SK-OV-3 ovarian
DMS 273 small cell lung = system: DMS 273 small cell lung
KM12 colon = system: KM12 colon
HCT-116 colon = system: HCT-116 colon
SK-MEL-5 melanoma = system: SK-MEL-5 melanoma
KM20L2 colon = system: KM20L2 colon
SN12C renal = system: SN12C renal
HCC-2998 colon = system: HCC-2998 colon
OVCAR-4 ovarian = system: OVCAR-4 ovarian
K-562 leukemia = system: K-562 leukemia
MALME-3M melanoma = system: MALME-3M melanoma
HOP-18 NSCLC = system: HOP-18 NSCLC
LOX IMVI melanoma = system: LOX IMVI melanoma
SNB-75 CNS = system: SNB-75 CNS
U251 CNS = system: U251 CNS
DMS 114 small cell lung = system: DMS 114 small cell lung
HL-60(TB) leukemia = system: HL-60(TB) leukemia
OVCAR-8 ovarian = system: OVCAR-8 ovarian
RPMI-8226 leukemia = system: RPMI-8226 leukemia
XF 498 CNS = system: XF 498 CNS
DLD-1 colon = system: DLD-1 colon
MOLT-4 leukemia = system: MOLT-4 leukemia
NCI-H226 lung = system: NCI-H226 lung
HOP-62 NSCLC = system: HOP-62 NSCLC
SF-268 CNS = system: SF-268 CNS
LXFL 529 NSCLC = system: LXFL 529 NSCLC
M14 melanoma = system: M14 melanoma
786-0 renal = system: 786-0 renal
NCI-H522 lung = system: NCI-H522 lung
SK-MEL-2 melanoma = system: SK-MEL-2 melanoma
SF-295 CNS = system: SF-295 CNS
EKVX NSCLC = system: EKVX NSCLC
UACC-257 melanoma = system: UACC-257 melanoma
IGROV1 ovarian = system: IGROV1 ovarian
RXF 393 renal = system: RXF 393 renal
UACC-62 melanoma = system: UACC-62 melanoma
SR leukemia = system: SR leukemia
OVCAR-5 ovarian = system: OVCAR-5 ovarian
UO-31 renal = system: UO-31 renal
TK-10 renal = system: TK-10 renal
NCI-H23 lung = system: NCI-H23 lung
M19-MEL melanoma = system: M19-MEL melanoma
SNB-78 CNS = system: SNB-78 CNS

COc1cccc(C=O)c1[O-].COc1cccc(C=O)c1[O-].[Cu+2]
TGI (HCT-15 colon): 19.8 µM | TGI (SF-539 CNS): 41.4 µM | TGI (COLO 205 colon): 20.8 µM | TGI (SK-MEL-28 melanoma): 28.5 µM | TGI (CCRF-CEM leukemia): 28.3 µM | TGI (HOP-92 NSCLC): 28 µM | TGI (SNB-19 CNS): 31.2 µM | TGI (A498 renal): 39.4 µM | TGI (ACHN renal): 30.5 µM | TGI (HT29 colon): 46.8 µM | TGI (NCI-H460 lung): 73.8 µM | GI50 (CAKI-1 renal): 2.83 µM | TGI (CAKI-1 renal): 10.3 µM | TGI (OVCAR-3 ovarian): 21 µM | TGI (A549 NSCLC): 55 µM | TGI (SW-620 colon): 36.3 µM | TGI (SK-OV-3 ovarian): 31.8 µM | TGI (DMS 273 small cell lung): 36.2 µM | TGI (KM12 colon): 30.7 µM | TGI (HCT-116 colon): 30.1 µM | TGI (SK-MEL-5 melanoma): 6.27 µM | TGI (KM20L2 colon): 32.3 µM | TGI (SN12C renal): 34 µM | TGI (HCC-2998 colon): 29 µM | TGI (OVCAR-4 ovarian): 6.85 µM | TGI (K-562 leukemia): 17.9 µM | TGI (MALME-3M melanoma): 20.1 µM | TGI (HOP-18 NSCLC): 26.8 µM | TGI (LOX IMVI melanoma): 37.6 µM | TGI (SNB-75 CNS): 35.4 µM | TGI (U251 CNS): 35.4 µM | TGI (DMS 114 small cell lung): 1.2 µM | GI50 (HL-60(TB) leukemia): 21.7 µM | TGI (HL-60(TB) leukemia): 46 µM | TGI (OVCAR-8 ovarian): 44.7 µM | TGI (RPMI-8226 leukemia): 41.4 µM | GI50 (XF 498 CNS): 6.8 µM | TGI (XF 498 CNS): 19.2 µM | TGI (DLD-1 colon): 23.7 µM | TGI (MOLT-4 leukemia): 18.6 µM | TGI (NCI-H226 lung): 68.2 µM | TGI (HOP-62 NSCLC): 31.7 µM | TGI (SF-268 CNS): 35.3 µM | TGI (LXFL 529 NSCLC): 16.5 µM | TGI (M14 melanoma): 31.4 µM | TGI (786-0 renal): 31.9 µM | TGI (NCI-H522 lung): 19.3 µM | TGI (SK-MEL-2 melanoma): 12.8 µM | TGI (SF-295 CNS): > 100 µM | TGI (EKVX NSCLC): 77.7 µM

C/C=C/CC(S(=O)(=O)c1ccccc1)S(=O)(=O)c1ccccc1
TGI (HCT-15 colon): > 100 µM | TGI (SF-539 CNS): > 100 µM | TGI (UACC-257 melanoma): > 100 µM | TGI (COLO 205 colon): > 100 µM | TGI (SK-MEL-28 melanoma): > 100 µM | TGI (CCRF-CEM leukemia): > 100 µM | TGI (HOP-92 NSCLC): > 100 µM | TGI (SNB-19 CNS): > 100 µM | TGI (IGROV1 ovarian): > 100 µM | TGI (A498 renal): > 100 µM | TGI (ACHN renal): > 100 µM | TGI (RXF 393 renal): > 100 µM | TGI (HT29 colon): > 100 µM | TGI (NCI-H460 lung): > 100 µM | TGI (UACC-62 melanoma): > 100 µM | TGI (OVCAR-3 ovarian): > 100 µM | TGI (A549 NSCLC): > 100 µM | TGI (SW-620 colon): > 100 µM | TGI (SK-OV-3 ovarian): > 100 µM | TGI (DMS 273 small cell lung): > 100 µM | TGI (KM12 colon): > 100 µM | TGI (HCT-116 colon): > 100 µM | TGI (SK-MEL-5 melanoma): > 100 µM | TGI (KM20L2 colon): > 100 µM | TGI (SN12C renal): > 100 µM | TGI (HCC-2998 colon): > 100 µM | TGI (OVCAR-4 ovarian): > 100 µM | TGI (K-562 leukemia): > 100 µM | TGI (HOP-18 NSCLC): > 100 µM | TGI (LOX IMVI melanoma): > 100 µM | TGI (SR leukemia): > 100 µM | TGI (OVCAR-5 ovarian): > 100 µM | TGI (SNB-75 CNS): > 100 µM | TGI (U251 CNS): > 100 µM | TGI (DMS 114 small cell lung): 81.8 µM | TGI (HL-60(TB) leukemia): > 100 µM | TGI (UO-31 renal): > 100 µM | TGI (OVCAR-8 ovarian): > 100 µM | TGI (RPMI-8226 leukemia): > 100 µM | TGI (XF 498 CNS): > 100 µM | TGI (TK-10 renal): > 100 µM | TGI (DLD-1 colon): > 100 µM | TGI (MOLT-4 leukemia): > 100 µM | TGI (NCI-H226 lung): > 100 µM | TGI (HOP-62 NSCLC): > 100 µM | TGI (NCI-H23 lung): > 100 µM | TGI (M14 melanoma): > 100 µM | TGI (NCI-H522 lung): > 100 µM | TGI (SK-MEL-2 melanoma): > 100 µM | TGI (SF-295 CNS): > 100 µM | TGI (EKVX NSCLC): > 100 µM

CC1(C)CC(/C=C2/OC(=O)c3ccccc32)=C(C(N)=O)C(=O)O1
TGI (HCT-15 colon): > 100 µM | TGI (SF-539 CNS): > 100 µM | TGI (UACC-257 melanoma): > 100 µM | TGI (COLO 205 colon): > 100 µM | TGI (SK-MEL-28 melanoma): > 100 µM | TGI (CCRF-CEM leukemia): > 100 µM | TGI (SNB-19 CNS): > 100 µM | TGI (IGROV1 ovarian): > 100 µM | TGI (HT29 colon): > 100 µM | TGI (NCI-H460 lung): > 100 µM | TGI (UACC-62 melanoma): > 100 µM | TGI (CAKI-1 renal): > 100 µM | TGI (OVCAR-3 ovarian): > 100 µM | TGI (M19-MEL melanoma): > 100 µM | TGI (A549 NSCLC): > 100 µM | TGI (SW-620 colon): > 100 µM | TGI (SK-OV-3 ovarian): > 100 µM | TGI (DMS 273 small cell lung): > 100 µM | TGI (KM12 colon): > 100 µM | TGI (HCT-116 colon): > 100 µM | TGI (SK-MEL-5 melanoma): > 100 µM | TGI (KM20L2 colon): > 100 µM | TGI (SN12C renal): > 100 µM | TGI (HCC-2998 colon): > 100 µM | TGI (OVCAR-4 ovarian): > 100 µM | TGI (K-562 leukemia): > 100 µM | TGI (MALME-3M melanoma): > 100 µM | TGI (LOX IMVI melanoma): > 100 µM | TGI (SR leukemia): > 100 µM | TGI (OVCAR-5 ovarian): > 100 µM | TGI (SNB-75 CNS): > 100 µM | TGI (U251 CNS): > 100 µM | TGI (DMS 114 small cell lung): > 100 µM | TGI (UO-31 renal): > 100 µM | TGI (OVCAR-8 ovarian): > 100 µM | TGI (RPMI-8226 leukemia): > 100 µM | TGI (XF 498 CNS): > 100 µM | TGI (DLD-1 colon): > 100 µM | TGI (MOLT-4 leukemia): > 100 µM | TGI (NCI-H226 lung): > 100 µM | TGI (HOP-62 NSCLC): > 100 µM | TGI (NCI-H23 lung): > 100 µM | TGI (SF-268 CNS): > 100 µM | TGI (LXFL 529 NSCLC): > 100 µM | TGI (M14 melanoma): > 100 µM | TGI (786-0 renal): > 100 µM | TGI (SNB-78 CNS): > 100 µM | TGI (NCI-H522 lung): > 100 µM | TGI (SK-MEL-2 melanoma): > 100 µM | TGI (SF-295 CNS): > 100 µM | TGI (EKVX NSCLC): > 100 µM
